According to patent publication US20220169632A1, “METHODS AND MATERIALS FOR INCREASING OR MAINTAINING NICOTINAMIDE MONONUCLEOTIDE ADENYLYL TRANSFERASE-2 (NMNAT2) POLYPEPTIDE LEVELS” (University of Pittsburgh - Of the Commonwealth System of …, priority 2019, published 2022):

Test system: NMNAT2
Test: NMNAT2-Hibit nano-luciferase activity in transfected U87MG cells, 25 μM, 24 hours
Assay type: cell-based
Settings: NMNAT2-Hibit luc plasmid, 24 hours (Table B)
Description: Selected compounds were tested in vitro. Briefly, U87MG cells were transfected with NMNAT2-Hibit luc plasmid. Cells were treated with a test compound at 25 μM for 24 hours. Cells were then collected and assayed for nano-luciferase activity.

Row | SMILES | B: compound efficacy (IC50) for NMNAT2 activation; increase in NMNAT2 luciferase activity
1 | Cc1cc(C)cc(NC(=O)NCc2noc3ccccc23)c1 [Compound 181035] | + (“+” <20% increase in NMNAT2 luciferase activity.)
2 | Cc1ccc2onc(CNC(=O)N(C)c3ccccc3Cl)c2c1 [Compound 181057] | + (“+” <20% increase in NMNAT2 luciferase activity.)
3 | Cc1ccc2onc(CNC(=O)NC(C)c3ccccc3)c2c1 (stereo not drawn) [Compound 181090] | + (“+” <20% increase in NMNAT2 luciferase activity.)
4 | Cc1ccc2onc(CNC(=O)NC3CCCC(C)C3C)c2c1 (stereo not drawn) [Compound 181046] | + (“+” <20% increase in NMNAT2 luciferase activity.)
5 | COc1ccc(CNC(=O)NCc2noc3ccccc23)cc1 [Compound 181019] | + (“+” <20% increase in NMNAT2 luciferase activity.)
6 | Cc1ccc2onc(CNC(=O)NC3CCCCC3C)c2c1 (stereo not drawn) [Compound 181085] | + (“+” <20% increase in NMNAT2 luciferase activity.)
7 | Cc1ccc(NC(=O)NCc2noc3ccccc23)cc1F [Compound 181004] | + (“+” <20% increase in NMNAT2 luciferase activity.)
8 | Cc1ccc2onc(CNC(=O)NCc3ccc(F)cc3)c2c1 [Compound 181047] | ++ (“++” >20% and <100% increase in NMNAT2 luciferase activity.)
9 | CN(C(=O)NCc1noc2ccccc12)c1cccc(Cl)c1 [Compound 181013] | + (“+” <20% increase in NMNAT2 luciferase activity.)
10 | Cc1ccc(Cl)cc1N(C)C(=O)NCc1noc2ccccc12 [Compound 181011] | + (“+” <20% increase in NMNAT2 luciferase activity.)
11 | Cc1cc(C)cc(NC(=O)NCc2noc3ccc(C)cc23)c1 [Compound 181091] | + (“+” <20% increase in NMNAT2 luciferase activity.)
12 | Cc1ccc2onc(CNC(=O)NCc3cccc(Cl)c3)c2c1 [Compound 181077] | ++ (“++” >20% and <100% increase in NMNAT2 luciferase activity.)
13 | COc1ccc(CNC(=O)NCc2noc3ccc(C)cc23)cc1 [Compound 181060] | ++ (“++” >20% and <100% increase in NMNAT2 luciferase activity.)
14 | COc1ccc(NC(=O)NCc2noc3ccccc23)cc1 [Compound 181026] | + (“+” <20% increase in NMNAT2 luciferase activity.)
15 | Cc1ccc2onc(CNC(=O)NCc3ccc(Cl)cc3)c2c1 [Compound 181082] | ++ (“++” >20% and <100% increase in NMNAT2 luciferase activity.)
16 | Cc1cccc(N(C)C(=O)NCc2noc3ccc(C)cc23)c1 [Compound 181058] | + (“+” <20% increase in NMNAT2 luciferase activity.)
17 | Cc1ccc2onc(CNC(=O)NCc3ccccc3Cl)c2c1 [Compound 181081] | + (“+” <20% increase in NMNAT2 luciferase activity.)

Row | SMILES | B: compound efficacy (IC50) for NMNAT2 activation; increase in NMNAT2 luciferase activity
18 | CCOc1ccc(CCNC(=O)NCc2noc3ccc(C)cc23)cc1 [Compound 181088] | + (“+” <20% increase in NMNAT2 luciferase activity.)
19 | COc1ccccc1CNC(=O)NCc1noc2ccccc12 [Compound 181008] | + (“+” <20% increase in NMNAT2 luciferase activity.)
20 | Cc1ccc2onc(CNC(=O)NC3CCCC3)c2c1 [Compound 181071] | + (“+” <20% increase in NMNAT2 luciferase activity.)
21 | COc1cccc(CNC(=O)NCc2noc3ccc(C)cc23)c1 [Compound 181076] | + (“+” <20% increase in NMNAT2 luciferase activity.)
22 | CCc1ccc(NC(=O)NCc2noc3ccccc23)cc1 [Compound 181009] | + (“+” <20% increase in NMNAT2 luciferase activity.)
23 | Cc1ccc2onc(CNC(=O)Nc3ccc(Cl)cc3)c2c1 [Compound 181080] | + (“+” <20% increase in NMNAT2 luciferase activity.)
24 | COc1ccc(NC(=O)NCc2noc3ccc(C)cc23)cc1Cl [Compound 181041] | + (“+” <20% increase in NMNAT2 luciferase activity.)
25 | Cc1ccc(NC(=O)NCc2noc3ccccc23)c(Cl)c1 [Compound 181021] | + (“+” <20% increase in NMNAT2 luciferase activity.)
26 | O=C(NCc1noc2ccccc12)Nc1ccc(F)c(Cl)c1 [Compound 181005] | + (“+” <20% increase in NMNAT2 luciferase activity.)
27 | COc1ccc(NC(=O)NCc2noc3ccccc23)cc1Cl [Compound 181006] | + (“+” <20% increase in NMNAT2 luciferase activity.)
28 | COc1ccc(OC)c(CNC(=O)NCc2noc3ccc(C)cc23)c1 [Compound 181072] | + (“+” <20% increase in NMNAT2 luciferase activity.)
29 | COc1ccc(NC(=O)NCc2noc3ccc(C)cc23)cc1 [Compound 181078] | + (“+” <20% increase in NMNAT2 luciferase activity.)
30 | Cc1ccc(CCNC(=O)NCc2noc3ccccc23)cc1 [Compound 181030] | + (“+” <20% increase in NMNAT2 luciferase activity.)
31 | Cc1ccc2onc(CNC(=O)NCCc3ccc(Cl)cc3)c2c1 [Compound 181059] | + (“+” <20% increase in NMNAT2 luciferase activity.)
32 | Cc1ccc(C)c(N(C)C(=O)NCc2noc3ccccc23)c1 [Compound 181016] | + (“+” <20% increase in NMNAT2 luciferase activity.)
33 | Cc1ccc2onc(CNC(=O)Nc3ccc(C(C)C)cc3)c2c1 [Compound 181053] | + (“+” <20% increase in NMNAT2 luciferase activity.)

Same assay, conditions: NMNAT2-Hibit luc plasmid, 24 hours (Table C)

Row | SMILES | C: Compound efficacy for NMNAT2 activation; increase in NMNAT2 luciferase activity
34 | O=C(Cn1cc(C(=O)C2CC2)c2ccccc21)NCc1ccco1 [Compound 181105] | + (“+” <20% increase in NMNAT2 luciferase activity.)
35 | CCn1c(=O)c(=O)n(CC(=O)NCc2ccc(C)o2)c2ccccc21 [Compound 181139] | + (“+” <20% increase in NMNAT2 luciferase activity.)
36 | O=C(Cn1ccc2ccccc21)NCc1ccco1 [Compound 181147] | + (“+” <20% increase in NMNAT2 luciferase activity.)
37 | Cc1ccc(Cn2cc(CCCC(=O)NCc3ccco3)c3ccccc32)cc1 [Compound 181114] | +++ (“+++” >100% increase in NMNAT2 luciferase activity.)
38 | CSc1ccc(CNC(=O)Cn2c(C)cc(C)c(C#N)c2=O)cc1 [Compound 181132] | + (“+” <20% increase in NMNAT2 luciferase activity.)
39 | Cc1ccc(CNC(=O)Cn2c(=O)c(=O)n(C)c3ccccc32)o1 [Compound 181137] | + (“+” <20% increase in NMNAT2 luciferase activity.)
40 | Cc1cc2ccccc2n1CC(=O)NCc1ccco1 [Compound 181144] | + (“+” <20% increase in NMNAT2 luciferase activity.)
41 | Cc1cc(C)n(CC(=O)NCc2ccco2)c(=O)c1C#N [Compound 181128] | + (“+” <20% increase in NMNAT2 luciferase activity.)
42 | O=C(NCCn1ccc2ccc(Cl)cc21)c1ccco1 [Compound 181156] | + (“+” <20% increase in NMNAT2 luciferase activity.)
43 | O=C(Cn1ccc2cc(Br)ccc21)NCc1ccco1 [Compound 181149] | ++ (“++” >20% and <100% increase in NMNAT2 luciferase activity.)
44 | COc1ccccc1CNC(=O)Cn1ccc2ccc(F)cc21 [Compound 181151] | + (“+” <20% increase in NMNAT2 luciferase activity.)
45 | CCn1ccc2cc(CCC(=O)NCc3ccco3)ccc21 [Compound 181141] | ++ (“++” >20% and <100% increase in NMNAT2 luciferase activity.)
46 | Cc1cc(C)n(CC(=O)Nc2ccc(C(=O)NCc3ccco3)cc2)c(=O)c1C#N [Compound 181133] | + (“+” <20% increase in NMNAT2 luciferase activity.)
47 | O=C(Cn1ccc2ccc(F)cc21)NCc1ccco1 [Compound 181152] | + (“+” <20% increase in NMNAT2 luciferase activity.)
48 | Cc1c(C=O)c2ccccc2n1CC(=O)NCc1ccco1 [Compound 181110] | + (“+” <20% increase in NMNAT2 luciferase activity.)
49 | Cc1cc2c(=O)n(CC(=O)NCc3ccco3)ccc2s1 [Compound 181140] | + (“+” <20% increase in NMNAT2 luciferase activity.)
50 | O=C(Cn1cc(C(=O)C(F)(F)F)c2cc(Br)ccc21)NCc1ccco1 [Compound 181103] | + (“+” <20% increase in NMNAT2 luciferase activity.)
51 | Cc1cc(C)n(CC(=O)NCc2ccccc2Cl)c(=O)c1C#N [Compound 181130] | + (“+” <20% increase in NMNAT2 luciferase activity.)
